One test addresses T1, OP1R (Homo sapiens, UniProt P41143).
T1 construct: host or cells: CHO-K1 (membrane preparations)
As to the kind of experiment: OP1R (delta opioid) activation, GTPγS scintillation proximity assay. Format: biochemical. The note with it: eight concentrations, 0.01 to 100,000 nM. The procedure:
(§1) Melatonin (MT1R and MT2R) and opioid receptor (OP1R, OP2R, and OP3R, corresponding to human delta, kappa, and mu opioid receptors) activation assays were performed by means of GTPγS scintillation proximity assays. For agonist testing, membrane preparations from CHO-K1 cells expressing each receptor (EuroscreenFast, Gosselies, Belgium) were mixed with guanosine diphosphate (GDP) (v/v). In parallel, GTPγ[^35S] (PerkinElmer, NEG030X, 0.1 nM final assay concentration) was mixed with PVT-WGA beads (Perkin Elmer, RPNQ001, 0.5 mg/well final assay density) (v/v) just before starting the reaction. The following reagents were then successively added in the wells of an Optiplate (Perkin Elmer): A total of 50 µL of test or reference ligand diluted in assay buffer, 10 µL of assay buffer (20 mM HEPES pH 7.4; 100–200 mM NaCl, 10 µg/mL saponin, MgCl2 at optimized concentration for the specific receptor, 0%–0.1% BSA), 20 µL of the membranes: GDP mix, and 20 µL of the GTPγ[^35S]: Beads mix. The plates were covered with a top seal, mixed on an orbital shaker for 2 min, and then incubated for 1 h at room temperature. Then the plates were centrifuged for 10 min at 2000 rpm, incubated at room temperature for 1 h, and counted for 1 min/well with a PerkinElmer TopCount™ reader.
A general note: In a scintillation proximity assay essentially only radioactivity close to the scintillant gives light.

The target of the next test is T2, MT2R (Homo sapiens, UniProt P49286).
T2 construct: host or cells: CHO-K1 (membrane preparations)
Briefly: MT2R activation, GTPγS scintillation proximity assay on CHO-K1 membranes. The conditions noted are these: eight concentrations, 0.01 to 100,000 nM. Format: biochemical. The procedure:
as §1

The subject of another test is Nrf2 (phospho S40). Briefly: Nrf2 serine 40 phosphorylation in skin explants after UVA-irradiation. Format: cell-based, human. The conditions noted are these: p < 0.05 vs UVA-irradiated vehicle control. The procedure: On an abdominoplasty coming from a person with Fitzpatrick phototype II, skin explants of an average diameter of 11 mm were prepared after obtaining written informed consent. The explants were kept in culture medium at 37 °C in a humid, 5% CO2 atmosphere. The peptide was applied topically and spread using a small spatula on day 0 (D0), D1, D2, and D3. […] On day 3, explants were irradiated with UVA (13.5 J/cm^2 equal to 3 minimal erythemal doses (MED)) using a Vilbert Lourmat solar simulator RMX 3W. For the UV irradiation, the explants were transferred into 1 mL of HBSS (Hank’s buffered salt solution) medium. The non-irradiated batches were kept in 1 mL of HBSS medium. After the UV exposure, all the explants were put in fresh Bio-EC’s explant medium (BEM medium). The products were applied on the explants 3 h before and just after UVA irradiation. Twenty-four hours after UVA irradiation, the tissues were harvested and processed for histology. After fixation for 24 h in buffered formalin, the samples were dehydrated and impregnated in paraffin using a Leica TP 1010 dehydration automat. The samples were embedded using a Leica EG 1160 embedding station. Sections 5 µm thick were made using a Leica RM 2125 Minot-type microtome, and the sections were mounted on Superfrost® histological glass slides (Thermo Fisher Scientific, Waltham, MA, USA). […]

Another test deals with T3, MT1R (Homo sapiens, UniProt P48039).
T3 construct: host or cells: CHO-K1 (membrane preparations)
As to the kind of experiment: MT1R activation, GTPγS scintillation proximity assay on CHO-K1 membranes. Format: biochemical. The conditions noted are these: eight concentrations, 0.01 to 100,000 nM. The procedure:
as §1

Another test deals with human ETBR (Homo sapiens, UniProt P24530). As to the kind of experiment: ETBR activation, Aequorin assay. Type of test: cell-based. The note with it: eight concentrations, 0.01 to 100,000 nM. The procedure: Melanin-concentrating hormone receptor (MCHR), endothelin-1 receptor (ETBR), and serotonin-receptor (5-HT2AR) assays were performed by means of Aequorin assays. Recombinant cells co-expressing human MCH1R, MCH2R, ETBR, or 5-HT2AR and mitochondrial apoaequorin (MCH1R, MCH2R and 5-HT2AR cells also co-express recombinant Gα16 protein) (EuroscreenFast, Gosselies, Belgium), grown 18 h prior to the test in media without antibiotics, were detached by gentle flushing with PBS-EDTA (5 mM EDTA), recovered by centrifugation, and resuspended in assay buffer (DMEM/HAM’s F12 with HEPES + 0.1% BSA protease free). Cells were incubated under agitation at room temperature for at least 4 h with Coelenterazine h (Promega, X300X, 0.5 µM final concentration). Dose response curves with the reference compounds were performed before testing the compounds. For agonist testing, 50 µL of cell suspension was injected on 50 µL of test compound or reference agonist diluted in assay buffer and plated in a 96-well plate. The resulting emission of light was recorded using the Hamamatsu Functional Drug Screening System 6000 (FDSS 6000). […] Agonist activity of test compound was expressed as a percentage of the activity of the reference agonist at its EC100 concentration.

Where a SMILES comes first, the peptide text is derived from it. [ ]: non-standard residue; d: D form. The star is where a group is joined. Bz = O=C(c1ccccc1)*; NPr2 = CCCN(CCC)* Bounds are passed on as bounds.

T2 sequence (P49286 whole entry): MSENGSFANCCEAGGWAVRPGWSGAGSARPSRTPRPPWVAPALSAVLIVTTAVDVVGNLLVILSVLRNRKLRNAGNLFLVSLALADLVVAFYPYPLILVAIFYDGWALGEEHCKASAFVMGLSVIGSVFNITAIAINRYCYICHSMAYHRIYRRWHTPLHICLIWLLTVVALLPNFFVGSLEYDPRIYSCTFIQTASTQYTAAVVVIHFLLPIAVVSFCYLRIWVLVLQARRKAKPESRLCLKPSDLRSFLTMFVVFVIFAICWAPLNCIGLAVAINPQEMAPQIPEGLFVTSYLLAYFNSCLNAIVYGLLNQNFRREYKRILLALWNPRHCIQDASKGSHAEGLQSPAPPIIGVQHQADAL
T1 sequence (P41143 whole entry): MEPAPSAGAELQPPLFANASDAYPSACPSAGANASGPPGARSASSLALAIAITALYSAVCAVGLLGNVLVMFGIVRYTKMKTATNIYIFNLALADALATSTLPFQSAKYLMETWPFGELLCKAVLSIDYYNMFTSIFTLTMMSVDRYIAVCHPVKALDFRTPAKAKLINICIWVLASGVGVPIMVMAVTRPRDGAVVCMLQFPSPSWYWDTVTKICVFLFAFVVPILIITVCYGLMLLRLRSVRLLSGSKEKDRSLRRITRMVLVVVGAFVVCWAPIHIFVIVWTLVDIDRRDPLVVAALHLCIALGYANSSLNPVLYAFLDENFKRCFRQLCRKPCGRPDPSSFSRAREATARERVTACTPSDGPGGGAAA
Sequence of human ETBR (P24530 27-442): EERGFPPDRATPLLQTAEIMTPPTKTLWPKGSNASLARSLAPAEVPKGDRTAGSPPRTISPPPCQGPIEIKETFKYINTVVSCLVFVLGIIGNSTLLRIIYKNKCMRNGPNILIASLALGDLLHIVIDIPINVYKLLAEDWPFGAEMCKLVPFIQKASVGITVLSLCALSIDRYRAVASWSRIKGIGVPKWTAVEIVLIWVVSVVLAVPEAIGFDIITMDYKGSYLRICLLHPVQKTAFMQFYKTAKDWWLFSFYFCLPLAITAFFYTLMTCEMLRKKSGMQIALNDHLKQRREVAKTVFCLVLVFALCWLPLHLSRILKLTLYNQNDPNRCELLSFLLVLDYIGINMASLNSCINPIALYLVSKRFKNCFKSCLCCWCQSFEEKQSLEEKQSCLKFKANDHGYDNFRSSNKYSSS
T3 sequence (P48039 whole entry): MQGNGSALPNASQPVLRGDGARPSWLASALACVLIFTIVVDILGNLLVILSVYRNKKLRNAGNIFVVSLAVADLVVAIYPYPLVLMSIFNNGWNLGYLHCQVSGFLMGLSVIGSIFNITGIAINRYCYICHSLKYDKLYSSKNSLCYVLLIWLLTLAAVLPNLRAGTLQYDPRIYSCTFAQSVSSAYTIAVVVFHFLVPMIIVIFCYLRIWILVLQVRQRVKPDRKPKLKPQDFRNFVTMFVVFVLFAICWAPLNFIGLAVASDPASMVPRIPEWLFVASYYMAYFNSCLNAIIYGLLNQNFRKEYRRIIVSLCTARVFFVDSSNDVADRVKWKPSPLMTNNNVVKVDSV

In general, EC50 refers to the concentration at which the effect is half-maximal. Read a high EC50 as weaker potency. On to `CCCN(CCC)C(=O)[C@@H](Cc1c[nH]c2ccccc12)NC(=O)[C@H](CCCNC(=N)N)NC(=O)[C@@H](Cc1ccccc1)NC(=O)[C@H](Cc1c[nH]cn1)NC(=O)CNC(=O)c1ccccc1` [Peptide 4] (Bz-GH[dF]R[dW]-NPr2), for which the EC50 at OP1R, on MT2R, at MT1R and at human ETBR was > 100 µM throughout. Besides, the “Induction of Nrf2 phosphorylation on serine 40” value in the test on Nrf2 (phospho S40) is listed as “up to 161%”.

(Values after publication PMC6940745 (International Journal of Molecular Sciences, 2019).)
